Measurements: ChEMBL document CHEMBL1150270, “Effect of the major glycosides of Harpagophytum procumbens (Devil's Claw) on epidermal cyclooxygenase-2 (COX-2) in vitro” (2008)
Calls of active or inactive are those of the source. The calls are words filed in the database; no cut-off is given here.

How the values were obtained:
Format in all cases: functional
Sus scrofa [1] = species: Sus scrofa; assay: Inhibition of COX2 synthesis in pig skin
Sus scrofa [2] = species: Sus scrofa; assay: Reduction of COX2 expression in pig skin at 500 uM by Western blotting
Sus scrofa [3] = species: Sus scrofa; assay: Suppression of COX2 expression in pig skin by immunostaining after 6 hrs
Sus scrofa [4] = species: Sus scrofa; assay: Increase in COX2 expression in pig skin at 500 uM by Western blotting

| SMILES | inhibition (INH) (Sus scrofa [1]) [%] | Activity (Sus scrofa [2]) | Activity (Sus scrofa [3]) | Activity (Sus scrofa [4]) |
| --- | --- | --- | --- | --- |
| C[C@]1(OC(=O)/C=C/c2ccc(O)cc2)C[C@@H](O)[C@]2(O)C=CO[C@@H](O[C@@H]3O[C@H](CO)[C@@H](O)[C@H](O)[C@H]3O)[C@@H]21 | <50 | Active | Active |  |
| C[C@]1(O)C[C@@H](O)[C@]2(O)C=CO[C@@H](O[C@H]3O[C@H](CO)[C@@H](O)[C@H](O)[C@H]3O)[C@@H]21 |  |  |  | Active |
| C[C@@H]1O[C@@H](O[C@@H]2[C@@H](O)[C@H](OCCc3ccc(O)c(O)c3)O[C@H](CO)[C@H]2OC(=O)/C=C/c2ccc(O)c(O)c2)[C@H](O)[C@H](O)[C@H]1O [ACETOSIDE] | <50 |  | Active |  |
| C[C@]1(OC(=O)/C=C/c2ccccc2)C[C@@H](O)[C@]2(O)C=CO[C@@H](O[C@@H]3O[C@H](CO)[C@@H](O)[C@H](O)[C@H]3O)[C@@H]21 [HARPAGOSIDE] | <50 |  | Active |  |
| CC(C)Cc1ccc(C(C)C(=O)O)cc1 (stereo not given) [IBUPROFEN] | <50 |  | Active |  |
